Measurements taken from patent publication US8642657B2 (Gruenenthal GmbH, priority 2003, dated 2014).

Columns and labels:
rat VR1 [1] = molecular target: T1, rat VR1 (Rattus norvegicus, UniProt O35433); conditions: rat VR1 expressed in CHO cells; cited from earlier work
T1 construct: expressed in transfected cells

rat VR1 [2] = molecular target: T1, rat VR1; test: 45Ca2+-uptake assay in CHO/VR1 cells, antagonism of capsaicin-stimulated uptake; format: cell-based; conditions: 45Ca2+ uptake stimulated by 50 nM capsaicin
rat VR1 [3] = molecular target: T1, rat VR1; test: [3H]resiniferatoxin (RTX) competition binding assay, VR1-transfected CHO cells; conditions: competition with [3H]RTX, rat VR1 in CHO cells; read-out: Ki (nM) Binding Affinity
Summary of the method: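 Competition with [3H]RTX (50-100 pM) ran 60 min at 37° C using whole VR1-induced CHO cells in BSA-containing DPBS, nonspecific defined by 100 nM cold RTX. After centrifugation, pellet radioactivity counted by scintillation; Hill fits gave Ki and cooperativity.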

T1 sequence (O35433 whole entry): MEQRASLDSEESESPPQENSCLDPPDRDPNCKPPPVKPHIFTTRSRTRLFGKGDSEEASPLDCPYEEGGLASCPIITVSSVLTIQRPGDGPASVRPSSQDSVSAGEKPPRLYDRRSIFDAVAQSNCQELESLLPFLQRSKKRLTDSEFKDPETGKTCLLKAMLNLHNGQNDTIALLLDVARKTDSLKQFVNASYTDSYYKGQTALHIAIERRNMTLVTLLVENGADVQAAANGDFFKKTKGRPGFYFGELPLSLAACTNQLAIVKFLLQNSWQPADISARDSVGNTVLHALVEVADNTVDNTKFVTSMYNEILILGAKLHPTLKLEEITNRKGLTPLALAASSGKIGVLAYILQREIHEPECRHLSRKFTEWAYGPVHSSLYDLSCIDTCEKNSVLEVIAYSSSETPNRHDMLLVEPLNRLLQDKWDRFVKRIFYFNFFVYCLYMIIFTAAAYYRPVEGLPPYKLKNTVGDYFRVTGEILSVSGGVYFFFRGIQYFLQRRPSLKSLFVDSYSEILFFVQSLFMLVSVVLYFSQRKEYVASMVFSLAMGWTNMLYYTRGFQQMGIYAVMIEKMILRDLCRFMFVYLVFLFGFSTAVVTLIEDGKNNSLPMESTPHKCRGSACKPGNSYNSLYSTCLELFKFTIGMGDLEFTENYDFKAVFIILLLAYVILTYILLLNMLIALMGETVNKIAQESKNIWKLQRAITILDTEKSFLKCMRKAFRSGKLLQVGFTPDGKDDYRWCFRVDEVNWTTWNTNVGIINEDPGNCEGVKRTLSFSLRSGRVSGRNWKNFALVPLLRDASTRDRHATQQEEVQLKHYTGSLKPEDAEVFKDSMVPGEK

Row | SMILES | agonism/antagonism character (rat VR1 [1]) | Ki (rat VR1 [2]) [nM] | melting point [°C] | Ki (rat VR1 [3]) [nM]
1 | Cc1ccc(CC(CNC(=S)NCc2ccc(NS(C)(=O)=O)cc2)COC(=O)C(C)(C)C)cc1C (stereo not shown) [Compound 1, N-[2-(3,4-dimethylbenzyl)-3-pivaloyloxypropyl]-N′-[4-(methylsulfonylamino)benzyl]thiourea] | partial agonism |  |  | 
2 | COc1cc(C2(C(=O)NCC(COC(=O)C(C)(C)C)Cc3ccc(C)c(C)c3)CC2)ccc1NS(C)(=O)=O (stereo not shown) [12-3, N-[2-(3,4-Dimethylbenzyl)-3-pivaloyloxypropyl]-1-[3-methoxy-4-(methylsulfonylamino)phenyl]cyclopropanecarboxamide] |  | 117 | 66 to 68 | 238
3 | CC(C)(C)c1ccc(CNC(=O)C2(c3ccc(NS(C)(=O)=O)cc3)CC2)cc1 [12-7, N-(4-tert-Butylbenzyl)-1-[4-(methylsulfonylamino)phenyl]cyclopropanecarboxamide] |  | 1760 | 200 to 203 | 608
